Test [1] concerns the target IL-17A(FLAG-Tagged): IL-17RA(His-Tagged) (Homo sapiens, UniProt Q16552, K93Q). The test is described as follows: IL-17A(FLAG-Tagged): IL-17RA(His-Tagged) Binding Disruption Eu-HTRF Assay. The settings on record: IL-17A/IL-17RA binding disruption, simple average if tested more than once. In short, it runs like this: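 IC50 comes from a one-site competition fit of the HTRF 665/620 nm ratio. Compound dilutions (2-fold, 22 points) were held 1 h rt with FLAG-tagged IL-17A dimer, then His-tagged IL-17RA plus Eu-cryptate anti-FLAG and D2 anti-His antibodies were added for 2 h rt.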
A general note: TR-FRET usually uses a lanthanide donor and a delayed reading to cut background.

For test [2], the system named is IL-17A-induced G-CSF production in human normal keratinocyte (NHK). The test is described as follows: NHK Assay: IL-17A-induced G-CSF production in human normal keratinocytes. Format: cell-based. The note with it: Homo sapiens, Keratinocyte, 24 h, adult normal human keratinocytes, IL-17A 5 ng/mL, simple average if tested more than once. Put shortly: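 Compound is first combined with recombinant human IL-17A for 1 h at rt, and the mix is added to adult normal human keratinocytes so that IL-17A is 5 ng/mL. After 24 h at 37° C in 5% FBS, G-CSF released into the medium is read by HTRF and IC50 derived.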

Structures are written as SMILES.

For orientation: IC50 means the concentration at which inhibition is half-maximal. Read a low IC50 as higher potency.

Sequence of UniProt Q16552 (Q16552 with tags, fused parts or gaps K93Q): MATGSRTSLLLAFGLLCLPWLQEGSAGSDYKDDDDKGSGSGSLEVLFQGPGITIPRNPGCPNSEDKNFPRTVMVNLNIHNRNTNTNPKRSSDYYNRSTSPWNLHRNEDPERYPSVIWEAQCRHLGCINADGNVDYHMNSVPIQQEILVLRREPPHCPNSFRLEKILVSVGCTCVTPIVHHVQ

For `O=C(CCC(F)(F)F)N[C@@H](c1cnn2cc([C@@H](NC(=O)c3cncc(CC(F)F)c3)C3CCC(F)(F)CC3)nc2c1)C1CC1` [Example 152, N—((S)-(7-((R)-Cyclopropyl(4,4,4-trifluorobutanamido)methyl)imidazo[1,2-b]pyridazin-2-yl)(4,4-difluorocyclohexyl)methyl)-5-(2,2-difluoroethyl)nicotinamide], the figures for the IC50 in test [1] and in test [2] were 32 nM and 180 nM, respectively.

Consider `Cc1nocc1C(=O)N[C@H](c1cn2ncc(C(C)NC(=O)CCC(F)(F)F)cc2n1)C1CCC(F)(F)CC1` (stereo partly drawn) [Example 153, N-((1S)-(4,4-Difluorocyclohexyl)(7-(1-(4,4,4-trifluorobutanamido)ethyl)imidazo[1,2-b]pyridazin-2-yl)methyl)-3-methylisoxazole-4-carboxamide], for which the IC50 is 420 nM in test [1] and 480 nM in test [2].

With `CCc1nonc1C(=O)N[C@H](c1cn2ncc([C@H](NC(=O)CCC(F)(F)F)C3CC3)cc2n1)C1CCC(F)(F)CC1` [Example 156, N—((S)-(7-((R)-Cyclopropyl(4,4,4-trifluorobutanamido)methyl)imidazo[1,2-b]pyridazin-2-yl)(4,4-difluorocyclohexyl)methyl)-4-ethyl-1,2,5-oxadiazole-3-carboxamide], the IC50 worked out at 13 nM in test [1] and 60 nM in test [2].

As for `Cc1nonc1C(=O)N[C@H](c1cn2ncc([C@H](NC(=O)CCC(F)(F)F)C3CC3)cc2n1)C1CCC(F)(F)CC1` [Example 157, N—((S)-(7-((R)-Cyclopropyl(4,4,4-trifluorobutanamido)methyl)imidazo[1,2-b]pyridazin-2-yl)(4,4-difluorocyclohexyl)methyl)-4-methyl-1,2,5-oxadiazole-3-carboxamide], the IC50 in test [1] worked out at 36 nM; in test [2], 150 nM.

For `Cc1conc1C(=O)N[C@H](c1cn2ncc([C@H](NC(=O)CCC(F)(F)F)C3CC3)cc2n1)C1CCC(F)(F)CC1` [Example 158, N—((S)-(7-((R)-Cyclopropyl(4,4,4-trifluorobutanamido)methyl)imidazo[1,2-b]pyridazin-2-yl)(4,4-difluorocyclohexyl)methyl)-4-methylisoxazole-3-carboxamide], the figures for the IC50 in test [1] and in test [2] were 48 nM and 210 nM, respectively.

On to `Cc1oncc1C(=O)N[C@H](c1cn2ncc([C@H](NC(=O)CCC(F)(F)F)C3CC3)cc2n1)C1CCC(F)(F)CC1` [Example 159, N—((S)-(7-((R)-Cyclopropyl(4,4,4-trifluorobutanamido)methyl)imidazo[1,2-b]pyridazin-2-yl)(4,4-difluorocyclohexyl)methyl)-5-methylisoxazole-4-carboxamide], for which the IC50 worked out at 100 nM in test [1] and 260 nM in test [2].

With `Cc1cnoc1C(=O)N[C@H](c1cn2ncc([C@H](NC(=O)CCC(F)(F)F)C3CC3)cc2n1)C1CCC(F)(F)CC1` [Example 160, N—((S)-(7-((R)-Cyclopropyl(4,4,4-trifluorobutanamido)methyl)imidazo[1,2-b]pyridazin-2-yl)(4,4-difluorocyclohexyl)methyl)-4-methylisoxazole-5-carboxamide], the IC50 in test [1] amounted to 73 nM; in test [2], 270 nM.

Take `Cc1nscc1C(=O)N[C@H](c1cn2ncc([C@H](NC(=O)CCC(F)(F)F)C3CC3)cc2n1)C1CCC(F)(F)CC1` [Example 161, N—((S)-(7-((R)-Cyclopropyl(4,4,4-trifluorobutanamido)methyl)imidazo[1,2-b]pyridazin-2-yl)(4,4-difluorocyclohexyl)methyl)-3-methylisothiazole-4-carboxamide]: the figures for the IC50 in test [1] and in test [2] were 61 nM and 310 nM, respectively.

For `CC(C)c1cc(C(=O)N[C@H](c2cn3ncc([C@H](NC(=O)CCC(F)(F)F)C4CC4)cc3n2)C2CCC(F)(F)CC2)ncn1` [Example 162, N—((S)-(7-((R)-Cyclopropyl(4,4,4-trifluorobutanamido)methyl)imidazo[1,2-b]pyridazin-2-yl)(4,4-difluorocyclohexyl)methyl)-6-isopropylpyrimidine-4-carboxamide], the IC50 in test [1] turned out to be 150 nM; in test [2] it was 940 nM.

`O=C(CCC(F)(F)F)N[C@@H](c1cnn2cc([C@@H](NC(=O)c3cccc(N4CCCC4=O)c3)C3CCC(F)(F)CC3)nc2c1)C1CC1` [Example 163, N—((S)-(7-((R)-Cyclopropyl(4,4,4-trifluorobutanamido)methyl)imidazo[1,2-b]pyridazin-2-yl)(4,4-difluorocyclohexyl)methyl)-3-(2-oxopyrrolidin-1-yl)benzamide]: the IC50 worked out at 120 nM in test [1] and 100 nM in test [2].

On to `O=C(CCC(F)(F)F)N[C@@H](c1cnn2cc([C@@H](NC(=O)c3cccc(C4CC4(F)F)c3)C3CCC(F)(F)CC3)nc2c1)C1CC1` (stereo partly drawn) [Example 164, N—((S)-(7-((R)-Cyclopropyl(4,4,4-trifluorobutanamido)methyl)imidazo[1,2-b]pyridazin-2-yl)(4,4-difluorocyclohexyl)methyl)-3-(2,2-difluorocyclopropyl)benzamide], for which the IC50 was 55 nM in test [1] and 130 nM in test [2].

In the case of `O=C(CCC(F)(F)F)N[C@@H](c1cnn2cc([C@@H](NC(=O)c3cc(F)cc(OC(F)F)c3)C3CCC(F)(F)CC3)nc2c1)C1CC1` [Example 165, N—((S)-(7-((R)-Cyclopropyl(4,4,4-trifluorobutanamido)methyl)imidazo[1,2-b]pyridazin-2-yl)(4,4-difluorocyclohexyl)methyl)-3-(difluoromethoxy)-5-fluorobenzamide], the figures for the IC50 in test [1] and in test [2] were 52 nM and 130 nM, respectively.

As for `O=C(CCC(F)(F)F)N[C@@H](c1cnn2cc([C@@H](NC(=O)c3cccc(C4CC4)c3)C3CCC(F)(F)CC3)nc2c1)C1CC1` [Example 166, 3-Cyclopropyl-N—((S)-(7-((R)-cyclopropyl(4,4,4-trifluorobutanamido)methyl)imidazo[1,2-b]pyridazin-2-yl)(4,4-difluorocyclohexyl)methyl)benzamide], the IC50 in test [1] was 57 nM; in test [2] it was 130 nM.

For `O=C(CCC(F)(F)F)N[C@@H](c1cnn2cc([C@@H](NC(=O)c3cccc(OC(F)F)c3)C3CCC(F)(F)CC3)nc2c1)C1CC1` [Example 167, N—((S)-(7-((R)-Cyclopropyl(4,4,4-trifluorobutanamido)methyl)imidazo[1,2-b]pyridazin-2-yl)(4,4-difluorocyclohexyl)methyl)-3-(difluoromethoxy)benzamide], the IC50 in test [1] stood at 37 nM; in test [2], 160 nM.

As for `O=C(CCC(F)(F)F)N[C@@H](c1cnn2cc([C@@H](NC(=O)c3cccc(OCC(F)F)c3)C3CCC(F)(F)CC3)nc2c1)C1CC1` [Example 168, N—((S)-(7-((R)-Cyclopropyl(4,4,4-trifluorobutanamido)methyl)imidazo[1,2-b]pyridazin-2-yl)(4,4-difluorocyclohexyl)methyl)-3-(2,2-difluoroethoxy)benzamide], the IC50 turned out to be 38 nM in test [1] and 190 nM in test [2].

Take `O=C(CCC(F)(F)F)N[C@@H](c1cnn2cc([C@@H](NC(=O)c3cc(OC(F)F)ccc3F)C3CCC(F)(F)CC3)nc2c1)C1CC1` [Example 169, N—((S)-(7-((R)-Cyclopropyl(4,4,4-trifluorobutanamido)methyl)imidazo[1,2-b]pyridazin-2-yl)(4,4-difluorocyclohexyl)methyl)-5-(difluoromethoxy)-2-fluorobenzamide]: the values for the IC50 in test [1] and in test [2] were 37 nM and 200 nM, respectively.

As to `O=C(CCC(F)(F)F)N[C@@H](c1cnn2cc([C@@H](NC(=O)c3cccc(C(F)F)c3)C3CCC(F)(F)CC3)nc2c1)C1CC1` [Example 170, N—((S)-(7-((R)-Cyclopropyl(4,4,4-trifluorobutanamido)methyl)imidazo[1,2-b]pyridazin-2-yl)(4,4-difluorocyclohexyl)methyl)-3-(difluoromethyl)benzamide], the IC50 in test [1] was found to be 41 nM; in test [2] it was 220 nM.

In the case of `O=C(CCC(F)(F)F)N[C@@H](c1cnn2cc([C@@H](NC(=O)c3ccnc(OCC(F)(F)F)c3)C3CCC(F)(F)CC3)nc2c1)C1CC1` [Example 171, N—((S)-(7-((R)-Cyclopropyl(4,4,4-trifluorobutanamido)methyl)imidazo[1,2-b]pyridazin-2-yl)(4,4-difluorocyclohexyl)methyl)-2-(2,2,2-trifluoroethoxy)isonicotinamide], the IC50 in test [1] was determined as 48 nM; in test [2], 320 nM.

For `O=C(CCC(F)(F)F)N[C@@H](c1cnn2cc([C@@H](NC(=O)c3ccnc(OC4CC4)c3)C3CCC(F)(F)CC3)nc2c1)C1CC1` [Example 172, 2-Cyclopropoxy-N—((S)-(7-((R)-cyclopropyl(4,4,4-trifluorobutanamido)methyl)imidazo[1,2-b]pyridazin-2-yl)(4,4-difluorocyclohexyl)methyl)isonicotinamide], the IC50 is 44 nM in test [1] and 320 nM in test [2].

Regarding `O=C(CCC(F)(F)F)N[C@@H](c1cnn2cc([C@@H](NC(=O)c3cccc(F)c3)C3CCC(F)(F)CC3)nc2c1)C1CC1` [Example 173, N—((S)-(7-((R)-Cyclopropyl(4,4,4-trifluorobutanamido)methyl)imidazo[1,2-b]pyridazin-2-yl)(4,4-difluorocyclohexyl)methyl)-3-fluorobenzamide], the IC50 in test [1] was 60 nM; in test [2], 340 nM.

For the compound `O=C(CCC(F)(F)F)N[C@@H](c1cnn2cc([C@@H](NC(=O)c3cccc(OCC(F)(F)F)c3)C3CCC(F)(F)CC3)nc2c1)C1CC1` [Example 174, N—((S)-(7-((R)-Cyclopropyl(4,4,4-trifluorobutanamido)methyl)imidazo[1,2-b]pyridazin-2-yl)(4,4-difluorocyclohexyl)methyl)-3-(2,2,2-trifluoroethoxy)benzamide], the results for the IC50 in test [1] and in test [2] were 80 nM and 390 nM, respectively.

Source of the values: patent US11702422B2, “Imidazopyridazines as modulators of IL-17” (Janssen Pharmaceutica NV, priority 2020, dated 2023).
